Laboratory results taken from patent US20260355196A1, “INHIBITORS AND DEGRADERS OF PIP4K PROTEIN” (Larkspur Biosciences, Inc., priority 2023, published 2026).

Molecular target: T1, PIP4K2C (Homo sapiens, UniProt Q8TBX8)
T1 sequence (Q8TBX8 1-421): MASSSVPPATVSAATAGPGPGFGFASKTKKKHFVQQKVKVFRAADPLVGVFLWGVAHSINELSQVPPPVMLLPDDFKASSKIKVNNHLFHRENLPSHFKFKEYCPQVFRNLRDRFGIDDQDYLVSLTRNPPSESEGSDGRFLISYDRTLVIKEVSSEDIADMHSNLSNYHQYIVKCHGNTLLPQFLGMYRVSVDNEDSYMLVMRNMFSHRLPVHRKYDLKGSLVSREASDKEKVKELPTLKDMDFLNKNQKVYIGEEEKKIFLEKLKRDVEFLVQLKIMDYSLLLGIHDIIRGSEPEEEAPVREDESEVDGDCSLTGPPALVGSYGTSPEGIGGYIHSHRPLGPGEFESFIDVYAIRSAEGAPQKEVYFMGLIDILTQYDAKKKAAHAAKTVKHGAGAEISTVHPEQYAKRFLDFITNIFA
Experiment: HiBiT PIP4K2C degradation assay in MOLT-4 cells (endogenous PIP4K2C C-terminally tagged with HiBiT)
Format: cell-based
Design: untagged in primary human PBMCs and monocyte-derived dendritic cells
Conditions: 6 hours of incubation time, rather than 24 hours; MOLT-4, top concentration 10 micromolar; read-out: HiBIT-degradation MOLT4 PIP4k2C DC50 (6 hours, marked *)
In short: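 DC50 derived by Hill fit of luminescence from Nano-Glo HiBiT lytic detection. Cells were HiBiT knock-in MOLT-4 (C-terminal tag on endogenous PIP4K2C), exposed 6 h or 24 h at 37 C to compound, top concentration 10 micromolar, 3-fold steps, 10 points, duplicates.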

Compound	DC50
O=C1CCC(Nc2ccc(C3CCN(CC4(O)CCN(C(=O)[C@H]5CC[C@H](Nc6ncc(F)c(-c7cccc(C(=O)N8CC[C@H](O)C8)c7)n6)CC5)CC4)CC3)c(F)c2)C(=O)N1 (stereo partly drawn) [Compound 481, trans-3-((3-fluoro-4-(1-((1-(4-((5-fluoro-4-(3-((S)-3-hydroxypyrrolidine-1-carbonyl)phenyl)pyrimidin-2-yl)amino)cyclohexane-1-carbonyl)-4-hydroxypiperidin-4-yl)methyl)piperidin-4-yl)phenyl)amino)piperidine-2,6-dione]	< 500 nM
O=C1CCC(Nc2ccc(N3CCN(CC4(O)CCN(C(=O)[C@H]5CC[C@H](Nc6ncc(F)c(-c7cccc(C(=O)N8CC[C@H](O)C8)c7)n6)CC5)CC4)CC3)c(F)c2)C(=O)N1 (stereo partly drawn) [Compound 482, trans-3-((3-fluoro-4-(4-((1-(4-((5-fluoro-4-(3-((S)-3-hydroxypyrrolidine-1-carbonyl)phenyl)pyrimidin-2-yl)amino)cyclohexane-1-carbonyl)-4-hydroxypiperidin-4-yl)methyl)piperazin-1-yl)phenyl)amino)piperidine-2,6-dione]	< 500 nM
O=C1CCC(Nc2ccc(N3CCN(CC4CCN(C(=O)[C@H]5CC[C@H](Nc6ncc(F)c(-c7cccc(C(=O)N8CC[C@H](O)C8)c7)n6)CC5)CC4)CC3)c(F)c2)C(=O)N1 (stereo partly drawn) [Compound 483, trans-3-((3-fluoro-4-(4-((1-(4-((5-fluoro-4-(3-((S)-3-hydroxypyrrolidine-1-carbonyl)phenyl)pyrimidin-2-yl)amino)cyclohexane-1-carbonyl)piperidin-4-yl)methyl)piperazin-1-yl)phenyl)amino)piperidine-2,6-dione]	< 500 nM
O=C1CCC(Nc2ccc(N3CCN(CC4(F)CCN(C(=O)[C@H]5CC[C@H](Nc6ncc(F)c(-c7cccc(-c8ccccc8)c7)n6)CC5)CC4)CC3)c(F)c2)C(=O)N1 (stereo partly drawn) [Compound 484, trans-3-[3-fluoro-4-[4-[[4-fluoro-1-[4-[[5-fluoro-4-(3-phenylphenyl)pyrimidin-2-yl]amino]cyclohexanecarbonyl]-4-piperidyl]methyl]piperazin-1-yl]anilino]piperidine-2,6-dione]	< 500 nM
CN(C(=O)[C@H]1CC[C@H](Nc2ncc(F)c(-c3cccc(-n4ccccc4=O)c3)n2)CC1)[C@H]1CC[C@H](N2CCN(c3ccc(NC4CCC(=O)NC4=O)cc3F)CC2)CC1 (stereo partly drawn) [Compound 488, trans-(1r,4R)—N-((1r,4R)-4-(4-(4-((2,6-dioxopiperidin-3-yl)amino)-2-fluorophenyl)piperazin-1-yl)cyclohexyl)-4-((5-fluoro-4-(3-(2-oxopyridin-1(2H)-yl)phenyl)pyrimidin-2-yl)amino)-N-methylcyclohexane-1-carboxamide]	< 500 nM
O=C1CCC(Nc2ccc(N3CCN([C@H]4CC[C@H](NC(=O)[C@H]5CC[C@H](Nc6ncc(F)c(-c7cccc(N8CCCOC8=O)c7)n6)CC5)CC4)CC3)c(F)c2)C(=O)N1 (stereo partly drawn) [Compound 490, trans-N-(trans-4-(4-(4-((2,6-dioxopiperidin-3-yl)amino)-2-fluorophenyl)piperazin-1-yl)cyclohexyl)-4-((5-fluoro-4-(3-(2-oxo-1,3-oxazinan-3-yl)phenyl)pyrimidin-2-yl)amino)cyclohexane-1-carboxamide]	< 500 nM
O=C1CCC(Nc2ccc(N3CCC(N4CCC(NC(=O)[C@H]5CC[C@H](Nc6ncc(F)c(-c7cccc(N8CCCCC8=O)c7)n6)CC5)CC4)C(F)(F)C3)c(F)c2)C(=O)N1 (stereo partly drawn) [Compound 494, trans-N-(1′-(4-((2,6-dioxopiperidin-3-yl)amino)-2-fluorophenyl)-3′,3′-difluoro-[1,4′-bipiperidin]-4-yl)-4-((5-fluoro-4-(3-(2-oxopiperidin-1-yl)phenyl)pyrimidin-2-yl)amino)cyclohexane-1-carboxamide]	< 500 nM
O=C1CCC(Nc2ccc(N3CCC(N4CCC(NC(=O)[C@H]5CC[C@H](Nc6ncc(F)c(-c7cccc(N8CCCOC8=O)c7)n6)CC5)CC4)C(F)(F)C3)c(F)c2)C(=O)N1 (stereo partly drawn) [Compound 495, trans-N-(1′-(4-((2,6-dioxopiperidin-3-yl)amino)-2-fluorophenyl)-3′,3′-difluoro-[1,4′-bipiperidin]-4-yl)-4-((5-fluoro-4-(3-(2-oxo-1,3-oxazinan-3-yl)phenyl)pyrimidin-2-yl)amino)cyclohexane-1-carboxamide]	< 500 nM
O=C1CCC(Nc2ccc(N3CCC(N4CCC(NC(=O)[C@H]5CC[C@H](Nc6ncc(F)c(-c7cccc(N8CCOCC8=O)c7)n6)CC5)CC4)C(F)(F)C3)c(F)c2)C(=O)N1 (stereo partly drawn) [Compound 496, trans-N-(1′-(4-((2,6-dioxopiperidin-3-yl)amino)-2-fluorophenyl)-3′,3′-difluoro-[1,4′-bipiperidin]-4-yl)-4-((5-fluoro-4-(3-(3-oxomorpholino)phenyl)pyrimidin-2-yl)amino)cyclohexane-1-carboxamide]	< 500 nM
O=C1CCC(Nc2ccc(N3CCC(N4CCC(C(=O)N[C@H]5CC[C@H](Nc6ncc(F)c(-c7cccc(C8CC8)c7)n6)CC5)CC4)C(F)(F)C3)c(F)c2)C(=O)N1 (stereo partly drawn) [Compound 497, trans-N-(4-((4-(3-cyclopropylphenyl)-5-fluoropyrimidin-2-yl)amino)cyclohexyl)-1′-(4-((2,6-dioxopiperidin-3-yl)amino)-2-fluorophenyl)-3′,3′-difluoro-[1,4′-bipiperidine]-4-carboxamide]	< 500 nM
O=C1CCC(Nc2ccc(N3CCC(N4CCC(C(=O)N[C@H]5CC[C@H](Nc6ncc(F)c(-c7cccc(N8CCCCC8)c7)n6)CC5)CC4)C(F)(F)C3)c(F)c2)C(=O)N1 (stereo partly drawn) [Compound 498, trans-1′-(4-((2,6-dioxopiperidin-3-yl)amino)-2-fluorophenyl)-3′,3′-difluoro-N-(4-((5-fluoro-4-(3-(piperidin-1-yl)phenyl)pyrimidin-2-yl)amino)cyclohexyl)-[1,4′-bipiperidine]-4-carboxamide]	< 500 nM
O=C1CCC(Nc2ccc(N3CCC(N4CCC(C(=O)N[C@H]5CC[C@H](Nc6ncc(F)c(-c7cccc(N8CCCCC8=O)c7)n6)CC5)CC4)C(F)(F)C3)c(F)c2)C(=O)N1 (stereo partly drawn) [Compound 499, trans-1′-(4-((2,6-dioxopiperidin-3-yl)amino)-2-fluorophenyl)-3′,3′-difluoro-N-(4-((5-fluoro-4-(3-(2-oxopiperidin-1-yl)phenyl)pyrimidin-2-yl)amino)cyclohexyl)-[1,4′-bipiperidine]-4-carboxamide]	< 500 nM

Next, values leading:

DC50	Compound
< 500 nM	O=C1CCC(Nc2ccc(N3CCN(CC4CCN(C(=O)[C@H]5CC[C@H](Nc6ncc(F)c(-c7cccc(-c8ccccc8)c7)n6)CC5)CC4)CC3)c(F)c2)C(=O)N1 (stereo partly drawn) [Compound 485, trans-3-((4-(4-((1-(4-((4-([1,1′-biphenyl]-3-yl)-5-fluoropyrimidin-2-yl)amino)cyclohexane-1-carbonyl)piperidin-4-yl)methyl)piperazin-1-yl)-3-fluorophenyl)amino)piperidine-2,6-dione]
< 500 nM	O=C1CCC(Nc2ccc(C3CCN(CC4(F)CCN(C(=O)[C@H]5CC[C@H](Nc6ncc(F)c(-c7cccc(-n8ccccc8=O)c7)n6)CC5)CC4)CC3)c(F)c2)C(=O)N1 (stereo partly drawn) [Compound 487, trans-3-((3-fluoro-4-(1-((4-fluoro-1-(4-((5-fluoro-4-(3-(2-oxopyridin-1(2H)-yl)phenyl)pyrimidin-2-yl)amino)cyclohexane-1-carbonyl)piperidin-4-yl)methyl)piperidin-4-yl)phenyl)amino)piperidine-2,6-dione]
< 500 nM	Cn1nc(C2CCC(=O)NC2=O)c2ccc(N3CCN(C[C@H]4CC[C@H](C(=O)N[C@H]5CC[C@H](Nc6ncc(F)c(-c7cccc(-n8ccccc8=O)c7)n6)CC5)CC4)CC3)cc21 (stereo partly drawn) [Compound 489, trans-(1r,4R)-4-((4-(3-(2,6-dioxopiperidin-3-yl)-1-methyl-1H-indazol-6-yl)piperazin-1-yl)methyl)-N-((1r,4R)-4-((5-fluoro-4-(3-(2-oxopyridin-1(2H)-yl)phenyl)pyrimidin-2-yl)amino)cyclohexyl)cyclohexane-1-carboxamide]
< 500 nM	O=C1CCC(Nc2ccc(N3CCN(CC4(F)CCN(C(=O)[C@H]5CC[C@H](Nc6ncc(F)c(-c7cccc(N8CCCCC8)c7)n6)CC5)CC4)CC3)c(F)c2)C(=O)N1 (stereo partly drawn) [Compound 491, trans-3-((3-fluoro-4-(4-((4-fluoro-1-(4-((5-fluoro-4-(3-(piperidin-1-yl)phenyl)pyrimidin-2-yl)amino)cyclohexane-1-carbonyl)piperidin-4-yl)methyl)piperazin-1-yl)phenyl)amino)piperidine-2,6-dione]
< 500 nM	O=C1CCC(Nc2ccc(N3CCN(CC4(O)CCN(C(=O)[C@H]5CC[C@H](Nc6ncc(F)c(-c7cccc(C8CC8)c7)n6)CC5)CC4)CC3)c(F)c2)C(=O)N1 (stereo partly drawn) [Compound 492, trans-3-((4-(4-((1-(4-((4-(3-cyclopropylphenyl)-5-fluoropyrimidin-2-yl)amino)cyclohexane-1-carbonyl)-4-hydroxypiperidin-4-yl)methyl)piperazin-1-yl)-3-fluorophenyl)amino)piperidine-2,6-dione]
< 500 nM	O=C1CCC(Nc2ccc(N3CCN(CC4(O)CCN(C(=O)[C@H]5CC[C@H](Nc6ncc(F)c(-c7cccc(N8CCCCC8)c7)n6)CC5)CC4)CC3)c(F)c2)C(=O)N1 (stereo partly drawn) [Compound 493, trans-3-[3-fluoro-4-[4-[[1-[4-[[5-fluoro-4-[3-(1-piperidyl)phenyl]pyrimidin-2-yl]amino]cyclohexanecarbonyl]-4-hydroxy-4-piperidyl]methyl]piperazin-1-yl]anilino]piperidine-2,6-dione]
